These compounds were tested against T1, BACE1 (Homo sapiens, UniProt P56817) (assay: Cellular Aβ-lowering assay a) (Aβ40 ELISA)). Details: cellular assay a): HEK293 cells expressing human APP695, Aβ40 in supernatant by ELISA after 18-20 hrs; read-out: BACE1 cell act. Aβ40 IC50.
T1 construct: Human HEK293 cells which are stably transfected with a vector expressing a cDNA of the human APP wt gene (APP695); endogenous in cells; host or cells: HEK293 cells stably transfected with human APP695 (wt)
T1 sequence (P56817 46-501): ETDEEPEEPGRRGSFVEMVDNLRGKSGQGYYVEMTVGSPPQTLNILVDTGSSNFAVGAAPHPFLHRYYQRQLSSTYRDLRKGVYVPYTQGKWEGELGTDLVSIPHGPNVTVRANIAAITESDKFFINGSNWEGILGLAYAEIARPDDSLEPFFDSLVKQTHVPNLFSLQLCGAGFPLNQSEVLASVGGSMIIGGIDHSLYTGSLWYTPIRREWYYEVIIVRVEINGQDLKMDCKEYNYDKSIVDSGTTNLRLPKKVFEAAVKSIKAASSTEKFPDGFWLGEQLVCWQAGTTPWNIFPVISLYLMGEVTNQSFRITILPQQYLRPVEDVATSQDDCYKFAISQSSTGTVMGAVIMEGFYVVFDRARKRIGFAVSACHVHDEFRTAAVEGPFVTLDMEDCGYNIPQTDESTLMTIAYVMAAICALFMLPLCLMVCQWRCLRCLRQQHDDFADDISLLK
Type: cell-based
Method: a) Human HEK293 cells which are stably transfected with a vector expressing a cDNA of the human APP wt gene (APP695) were used to assess the potency of the compounds in a cellular assay. The cells were seeded in 96-well microtiter plates in cell culture medium (Iscove, plus 10% (v/v) fetal bovine serum, glutamine, penicillin/streptomycin) to about 80% confluence and the compounds were added at a 10× concentration in 1/10 volume of medium without FCS containing 8% DMSO (final concentration of DMSO was kept at 0.8% v/v). After 18-20 hrs incubation at 37° C. and 5% CO2 in a humidified incubator the culture supernatant was harvested for the determination of Aβ40 concentrations. 96 well ELISA plates (e.g., Nunc MaxiSorb) were coated with monoclonal antibody which specifically recognize the C-terminal end of Aβ40 (Brockhaus et al., NeuroReport 9, 1481-1486; 1998). After blocking of non-specific binding sites with e.g. 1% BSA and washing, the culture supernatants were added in suitable dilutions together with a horseradish peroxidase-coupled Aβ detection antibody (e.g., antibody 4G8, Senetek, Maryland Heights, Mo.) and incubated for 5 to 7 hrs. Subsequently the wells of the microtiter plate were washed extensively with Tris-buffered saline containing 0.05% Tween 20 and the assay was developed with tetramethylbenzidine/H2O2 in citric acid buffer. After stopping the reaction with one volume of 1N H2SO4 the reaction was measured in an ELISA reader at 450 nm wavelength. The concentrations of Aβ in the culture supernatants were calculated from a standard curve obtained with known amounts of pure Aβ peptide.
`N#Cc1ccc(C(=O)Nc2ccc3c(c2)[C@@]2(CC3)N=C(N)OCC2(F)F)nc1` [Example 15, (R)—N-(2′-Amino-5′,5′-difluoro-2,3,5′,6′-tetrahydrospiro[indene-1,4′-[1,3]oxazine]-6-yl)-5-cyanopicolinamide] showed an IC50 of 510 nM. `NC1=N[C@@]2(CCc3ccc(NC(=O)c4ccc(Cl)cn4)cc32)C(F)(F)CO1` [Example 16, (R)—N-(2′-Amino-5′,5′-difluoro-2,3,5′,6′-tetrahydrospiro[indene-1,4′-[1,3]oxazine]-6-yl)-5-chloropicolinamide] showed an IC50 of 2490 nM. With `NC1=N[C@@]2(CCc3ccc(NC(=O)c4ccc(C(F)(F)F)cn4)cc32)C(F)(F)CO1` [Example 18, (R)—N-(2′-Amino-5′,5′-difluoro-2,3,5′,6′-tetrahydrospiro[indene-1,4′-[1,3]oxazine]-6-yl)-5-(trifluoromethyl)picolinamide] the IC50 was 660 nM. With `NC1=N[C@@]2(CCOc3ccc(-c4cncnc4)cc32)C(F)(F)CO1` [Example 21, (R)-5′,5′-difluoro-6-(pyrimidin-5-yl)-5′,6′-dihydrospiro[chroman-4,4′-[1,3]oxazin]-2′-amine] the IC50 was 5140 nM. Work on `N#Cc1cccc(-c2ccc3c(c2)[C@@]2(CC(c4ccccc4)O3)N=C(N)OCC2(F)F)c1` (some centres unmarked) [Example 27] yielded an IC50 of 260 nM. `CC1(C)C[C@@]2(N=C(N)OCC2(F)F)c2cc(-c3cncc(Cl)c3)ccc2O1` [Example 28, (R)-6-(5-chloropyridin-3-yl)-5′,5′-difluoro-2,2-dimethyl-5′,6′-dihydrospiro[chroman-4,4′-[1,3]oxazin]-2′-amine] gave an IC50 of 2530 nM. `NC1=N[C@@]2(CCOc3ccc(NC(=O)c4[nH]ncc4Cl)cc32)C(F)(F)CO1` [Example 35] was tested, and the IC50 was 1250 nM. `CC1(C)C[C@@]2(N=C(N)OCC2(F)F)c2cc(NC(=O)c3ccc(Cl)cn3)ccc2O1` [Example 40, (R)—N-(2′-Amino-5′,5′-difluoro-2,2-dimethyl-5′,6′-dihydrospiro[chroman-4,4′-[1,3]oxazine]-6-yl)-5-chloropicolinamide] was tested, and the IC50 was 2260 nM. `CC1(C)C[C@@]2(N=C(N)OCC2(F)F)c2cc(NC(=O)c3ccc(C#N)cn3)ccc2O1` [Example 41, (R)—N-(2′-Amino-5′,5′-difluoro-2,2-dimethyl-5′,6′-dihydrospiro[chroman-4,4′-[1,3]oxazine]-6-yl)-5-cyanopicolinamide] was tested, and the IC50 was 230 nM. With `NC1=N[C@@]2(CCS(=O)(=O)c3ccc(NC(=O)c4ccc(Cl)cn4)cc32)C(F)(F)CO1` [Example 45, N-[(4R)-2-amino-5,5-difluoro-1′,1′-dioxido-2′,3′,5,6-tetrahydrospiro[1,3-oxazine-4,4′-thiochromen]-6′-yl]-5-chloropyridine-2-carboxamide] the IC50 was 6960 nM. In the case of `N#Cc1ccc(C(=O)Nc2ccc3c(c2)[C@@]2(CCS3(=O)=O)N=C(N)OCC2(F)F)nc1` [Example 46, N-[(4R)-2-amino-5,5-difluoro-1′,1′-dioxido-2′,3′,5,6-tetrahydrospiro[1,3-oxazine-4,4′-thiochromen]-6′-yl]-5-cyanoopyridine-2-carboxamide], the IC50 is reported as 3400 nM. Work on `N#Cc1ccc(C(=O)Nc2ccc3c(c2)[C@@]2(CCC3)N=C(N)COCC2(F)F)nc1` [Example 47, (R)—N-(3′-Amino-6′,6′-difluoro-3,4,6′,7′-tetrahydro-2H,2′H-spiro[naphthalene-1,5′-[1,4]oxazepine]-7-yl)-5-cyanopicolinamide] yielded an IC50 of 240 nM. With `NC1=N[C@@]2(CCCc3ccc(NC(=O)c4ccc(Cl)cn4)cc32)C(F)(F)COC1` [Example 48, (R)—N-(3′-Amino-6′,6′-difluoro-3,4,6′,7′-tetrahydro-2H,2′H-spiro[naphthalene-1,5′-[1,4]oxazepine]-7-yl)-5-chloropicolinamide] the IC50 was 450 nM. Compound `N#Cc1ccc(C(=O)Nc2ccc3c(c2)[C@@]2(CCO3)N=C(N)COCC2(F)F)nc1` [Example 49, (R)—N-(3′-Amino-6′,6′-difluoro-6′,7′-dihydro-2′H-spiro[chroman-4,5′-[1,4]oxazepine]-6-yl)-5-cyanopicolinamide] has an IC50 of 830 nM.

— patent US9079919B2 (HOFFMANN-LA ROCHE INC., priority 2011, dated 2015)
